Test results published in ChEMBL document CHEMBL1201862, “PubChem BioAssay data set” (2004).
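A five-concentration, 48-hour dose response in 96-well plates underlies each endpoint, interpolated linearly between surrounding concentrations. Abbreviation: GI50, concentration required for 50% inhibition of growth.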 The source made the active and inactive calls. Rule as the data show it: active = GI50 up to about 1.1 µM and inactive = higher.

Tests used:
Assay in all cases: inhibition of tumour cell growth, NCI panel, 48 h
[1] = tested on: UACC-257
[2] = tested on: RPMI-8226
[3] = tested on: OVCAR-8
[4] = tested on: HT-29
[5] = tested on: SK-MEL-2
[6] = tested on: MOLT-4
[7] = tested on: HOP-92
[8] = tested on: MDA-MB-435
[9] = tested on: MDA-MB-231
[10] = tested on: NCI-H23
[11] = tested on: OVCAR-3
[12] = tested on: ACHN
[13] = tested on: DU-145
[14] = tested on: SK-MEL-28
[15] = tested on: HCC 2998
[16] = tested on: SW-620
[17] = tested on: IGROV-1
[18] = tested on: SR
[19] = tested on: TK-10
[20] = tested on: KM12

| Structure (SMILES) | GI50 [1] | GI50 [2] | GI50 [3] | GI50 [4] | GI50 [5] | GI50 [6] | GI50 [7] | GI50 [8] | GI50 [9] | GI50 [10] | GI50 [11] | GI50 [12] | GI50 [13] | GI50 [14] | GI50 [15] | GI50 [16] | GI50 [17] | GI50 [18] | GI50 [19] | GI50 [20] |
| --- | --- | --- | --- | --- | --- | --- | --- | --- | --- | --- | --- | --- | --- | --- | --- | --- | --- | --- | --- | --- |
| CCc1nc(N)nc(N)c1-c1ccc(NCCc2ccccc2)c([N+](=O)[O-])c1 | 1.77 µM (inactive) | 1.11 µM (active) | 0.394 µM (active) | 0.195 µM (active) | 8.71 µM (inactive) | 0.491 µM (active) | 2.21 µM (inactive) | 0.389 µM (active) | 8.65 µM (inactive) | 0.392 µM (active) | 1.44 µM (inactive) | 0.353 µM (active) | 1.14 µM (inactive) | 2.74 µM (inactive) | 0.745 µM (active) | 0.163 µM (active) | 0.394 µM (active) | 0.215 µM (active) | 13.3 µM (inactive) | 1.33 µM (inactive) |
| CC(C)(C)OC(=O)NC(Cc1ccc(OC(C)(C)C)cc1)C(=O)N[C@H]1CCC[C@H]1C(=O)NC(Cc1ccccc1)C(=O)N1CCCC1C(N)=O (stereo not given in full) | > 100 µM (inactive) | 80.5 µM (inactive) | > 100 µM (inactive) | > 100 µM (inactive) | > 100 µM (inactive) | > 100 µM (inactive) | > 100 µM (inactive) | > 100 µM (inactive) | > 100 µM (inactive) | > 100 µM (inactive) | > 100 µM (inactive) | > 100 µM (inactive) | > 100 µM (inactive) | > 100 µM (inactive) | > 100 µM (inactive) | > 100 µM (inactive) | > 100 µM (inactive) | > 100 µM (inactive) | > 100 µM (inactive) | > 100 µM (inactive) |
| O=C1/C(=C/c2ccc(O)cc2)CCc2ccccc21 | 17.3 µM (inactive) | 6.5 µM (inactive) | 27.2 µM (inactive) | 21.5 µM (inactive) | 16 µM (inactive) | 2.82 µM (inactive) | 36.2 µM (inactive) | 21.5 µM (inactive) | 20.5 µM (inactive) | 23.4 µM (inactive) | 23.3 µM (inactive) | 21.1 µM (inactive) | 24.8 µM (inactive) | 19.2 µM (inactive) | 22 µM (inactive) | 19.4 µM (inactive) | 26.9 µM (inactive) | 5.45 µM (inactive) | 51.5 µM (inactive) | 17.2 µM (inactive) |
| Cc1ccc(O)c(C(c2ccc(C(c3cc(C)ccc3O)c3cc(C)ccc3O)cc2)c2cc(C)ccc2O)c1 | 1.85 µM (inactive) | 1.56 µM (inactive) | 1.81 µM (inactive) | 1.87 µM (inactive) | 1.86 µM (inactive) | 2.9 µM (inactive) | 2.32 µM (inactive) | 1.7 µM (inactive) | 1.25 µM (inactive) | 1.79 µM (inactive) | 1.74 µM (inactive) | 1.78 µM (inactive) | 1.74 µM (inactive) | 1.81 µM (inactive) | 1.8 µM (inactive) | 1.82 µM (inactive) | 1.67 µM (inactive) | 2.62 µM (inactive) | 1.56 µM (inactive) | 1.67 µM (inactive) |
| C(=N\Nc1ccc(-c2nc3ccccc3[nH]2)cc1)/c1c(-c2ccc(Cc3ccccc3)cc2)[nH]c2ccccc12 | 13.5 µM (inactive) | 3.08 µM (inactive) | 7.91 µM (inactive) | 3.67 µM (inactive) | 3.56 µM (inactive) | 2.56 µM (inactive) | 4.09 µM (inactive) | 3.23 µM (inactive) | 11.5 µM (inactive) | 8.79 µM (inactive) | 9.44 µM (inactive) | 11 µM (inactive) | 16.8 µM (inactive) | 12.9 µM (inactive) | 3.83 µM (inactive) | 9.98 µM (inactive) | 4.41 µM (inactive) | 2.15 µM (inactive) | 21.5 µM (inactive) | 4.37 µM (inactive) |
| CC(C)OC(=O)c1ccc(CCC2=CC(=O)C(Br)=CC2=O)cc1 | 13.2 µM (inactive) | 7.26 µM (inactive) | 15.3 µM (inactive) | 16.8 µM (inactive) | 15.6 µM (inactive) | 3.09 µM (inactive) | 12.4 µM (inactive) | 16.9 µM (inactive) | 17.2 µM (inactive) | 13.2 µM (inactive) | 14.8 µM (inactive) | 14.5 µM (inactive) | 23.7 µM (inactive) | 18.2 µM (inactive) | 16.9 µM (inactive) | 15.5 µM (inactive) | 14.4 µM (inactive) | 3.82 µM (inactive) | 19.7 µM (inactive) | 13 µM (inactive) |
| O=C1C2CC(Cl)C(SSC3CC4C(=O)N(SC(Cl)(Cl)C(Cl)Cl)C(=O)C4CC3Cl)CC2C(=O)N1SC(Cl)(Cl)C(Cl)Cl (stereo not given) | 2.02 µM (inactive) | 1.81 µM (inactive) | 1.45 µM (inactive) | 1.77 µM (inactive) | 1.53 µM (inactive) | 0.192 µM (active) | 1.61 µM (inactive) | 1.65 µM (inactive) | 1.54 µM (inactive) | 1.66 µM (inactive) | 2.05 µM (inactive) | 2.23 µM (inactive) | 2.6 µM (inactive) | 2.15 µM (inactive) | 4.43 µM (inactive) | 1.27 µM (inactive) | 1.3 µM (inactive) | 0.229 µM (active) | 2.59 µM (inactive) | 5.04 µM (inactive) |
| CC(=O)Oc1ccc(/C=C/C(=O)NCC(NC(=O)/C=C/c2ccc(OC(C)=O)c(OC(C)=O)c2)C(=O)O)cc1OC(C)=O (stereo not given) | > 100 µM (inactive) | > 100 µM (inactive) | > 100 µM (inactive) | 50.8 µM (inactive) | > 100 µM (inactive) | 20.1 µM (inactive) | > 100 µM (inactive) | > 100 µM (inactive) | > 100 µM (inactive) | > 100 µM (inactive) | > 100 µM (inactive) | > 100 µM (inactive) | > 100 µM (inactive) | > 100 µM (inactive) | > 100 µM (inactive) | > 100 µM (inactive) | > 100 µM (inactive) | 33.4 µM (inactive) | > 100 µM (inactive) | > 100 µM (inactive) |
| COc1ccc2c[n+](C)c3c4cc(OC)c(OC)cc4ccc3c2c1 | 20.7 µM (inactive) | 2.96 µM (inactive) | 2.14 µM (inactive) | 4.1 µM (inactive) | 10.9 µM (inactive) | 3.85 µM (inactive) | 10.1 µM (inactive) | 13.7 µM (inactive) | 0.944 µM (active) | 3.12 µM (inactive) | 3.9 µM (inactive) | 64.6 µM (inactive) | 10.3 µM (inactive) | 18.9 µM (inactive) | 8.11 µM (inactive) | 2.23 µM (inactive) | 4.89 µM (inactive) | 2.87 µM (inactive) | 17.8 µM (inactive) | 1.43 µM (inactive) |
| CC(C)(CO)CNc1cc(Cl)nc(N)n1 | > 100 µM (inactive) | > 100 µM (inactive) | > 100 µM (inactive) | > 100 µM (inactive) | > 100 µM (inactive) | > 100 µM (inactive) | > 100 µM (inactive) | > 100 µM (inactive) | > 100 µM (inactive) | > 100 µM (inactive) | > 100 µM (inactive) | > 100 µM (inactive) | > 100 µM (inactive) | > 100 µM (inactive) | > 100 µM (inactive) | > 100 µM (inactive) | > 100 µM (inactive) | > 100 µM (inactive) | > 100 µM (inactive) | > 100 µM (inactive) |
| N=C(N)NS(=O)(=O)c1ccc(NC(=O)c2c3ccccc3nc3ccccc23)cc1 | > 100 µM (inactive) | > 100 µM (inactive) | > 100 µM (inactive) | > 100 µM (inactive) | > 100 µM (inactive) | > 100 µM (inactive) | > 100 µM (inactive) | > 100 µM (inactive) | > 100 µM (inactive) | > 100 µM (inactive) | > 100 µM (inactive) | > 100 µM (inactive) | > 100 µM (inactive) | > 100 µM (inactive) | > 100 µM (inactive) | > 100 µM (inactive) | > 100 µM (inactive) | > 100 µM (inactive) | > 100 µM (inactive) | > 100 µM (inactive) |
